Series [1] deals with L1210. Kind of series: Inhibitory activity against leucine-preferring transport system (system L) was determined in murine leukemia L1210 cell lines. It is filed as functional, cell-based, Mus musculus.
For a further series, the system named is CFU-C. Kind of series: Lethal dose was determined for […] activity against […]. It is filed as toxicity, cell-based. Conditions: mouse.
The subject of series [2] is L1210. Kind of series: Inhibitory activity against murine leukemia cells (L1210) was determined. It is filed as functional, cell-based, Mus musculus.
Series [3] has as its system L1210. Kind of series: Lethal dose was determined for […] activity against murine leukemia cells (L1210). It is filed as toxicity, cell-based. Conditions: mouse.
A short description of series [4]: Therapeutic index is the ratio of LD90 of CFU-C to LD90 of L1210 cell lines. It is filed as cell-based. Conditions: mouse, CFU-C and L1210 cells.
For series [5] the following is noted: rat.

The Ki is the dissociation constant of the complex between target and ligand, obtained from inhibition or displacement. For `NC1(C(=O)O)CCc2c(cccc2N(CCCl)CCCl)C1` (stereo not given), the Ki in the series on L1210 [1] was 15.2 µM.
By half-life is commonly meant the time in which the quantity being followed falls by half. A higher half-life goes with slow decline. As to `NC1(C(=O)O)CCc2ccc(N(CCCl)CCCl)cc2C1` (stereo not given), the LD90 with CFU-C was found to be 26.5 µM; with L1210 [3] it was 23.8 µM. The compound further yielded a Ki in the series on L1210 [2] of 0.22 µM. Besides, in series [4], the selectivity ratio stood at 0.9. The half-life in series [5] stood at 40 min.
`NC1(C(=O)O)CCc2ccccc2C1` (stereo not given) showed a Ki in the series with L1210 [1] of 5 µM. This lies in the single-digit micromolar range.
For `N[C@@H](Cc1ccc(N(CCCl)CCCl)cc1)C(=O)O` [MELPHALAN], the LD90 was found to be 14 µM in the series on CFU-C and 35 µM with L1210 [3]. Further, the affinity in the series on L1210 [2] corresponds to a Ki of 112 µM.
